Measurements taken from patent publication US6436963B1 (priority 1998, dated 2002).

What was measured:
Format in all cases: in vivo
Erysiphe graminis = assay: Powdery Mildew of Wheat (ERYSGT), protectant spray test on wheat seedlings; details: wheat (cultivar Monon), sprayed to run off at 100 ppm, inoculated after 24 hours
Puccinia recondita = assay: Brown Rust (PUCCRT), protectant spray test on wheat seedlings; details: wheat (cultivar Monon), sprayed to run off at 100 ppm, inoculated after 24 hours
Leptosphaeria nodorum = assay: Glume Blotch of Wheat (LEPTNO), protectant spray test on wheat seedlings; details: wheat (cultivar Monon), sprayed to run off at 100 ppm, inoculated after 24 hours
Phytophthora infestans = details: tomatoes (cultivar Rutgers), sprayed to run off at 100 ppm, inoculated after 24 hours

SMILES | ERYSGT control of plant disease (Erysiphe graminis) | PUCCRT control of plant disease (Puccinia recondita) | LEPTNO control of plant disease (Leptosphaeria nodorum) | PHYTIN control of plant disease (Phytophthora infestans)
CNC(=O)C(=NOC)c1ccccc1COc1ncc(C(OC(=O)COC)c2ccccc2)cc1Cl (racemic) [Example 64] | ++ (++ = 75-100% control of plant disease) | ++ (++ = 75-100% control of plant disease) | + (+ = 25-74% control of plant disease) | ++ (++ = 75-100% control of plant disease)
CNC(=O)C(=NOC)c1ccccc1COc1ncc(C(O)c2ccccc2F)cc1Cl (racemic) [Example 65] | ++ (++ = 75-100% control of plant disease) | ++ (++ = 75-100% control of plant disease) | ++ (++ = 75-100% control of plant disease) | ++ (++ = 75-100% control of plant disease)
CNC(=O)C(=NOC)c1ccccc1COc1ncc(COCc2ccc(OC)cc2)cc1Cl [Example 25] | ++ (++ = 75-100% control of plant disease) | ++ (++ = 75-100% control of plant disease) | ++ (++ = 75-100% control of plant disease) | + (+ = 25-74% control of plant disease)
CNC(=O)C(=NOC)c1ccccc1COc1ncc(C(C)(C)O)cc1Cl [Example 34] | − (− = 0-24% control of plant disease) | ++ (++ = 75-100% control of plant disease) | + (+ = 25-74% control of plant disease) | + (+ = 25-74% control of plant disease)
CC[Si](CC)(CC)OC(c1ccccc1)c1cnc(OCc2ccccc2C(=NOC)C(=O)NC)c(Cl)c1 (stereo not shown) [Example 67] | ++ (++ = 75-100% control of plant disease) | ++ (++ = 75-100% control of plant disease) | ++ (++ = 75-100% control of plant disease) | = =
CNC(=O)C(=NOC)c1ccccc1COc1ncc(C(OC(=O)OC)c2ccccc2)cc1Cl (stereo not shown) [Example 68] | ++ (++ = 75-100% control of plant disease) | ++ (++ = 75-100% control of plant disease) | − (− = 0-24% control of plant disease) | ++ (++ = 75-100% control of plant disease)
CCOC(c1ccccc1)c1cnc(OCc2ccccc2C(=NOC)C(=O)NC)c(Cl)c1 (stereo not shown) [Example 69] | ++ (++ = 75-100% control of plant disease) | ++ (++ = 75-100% control of plant disease) | ++ (++ = 75-100% control of plant disease) | − (− = 0-24% control of plant disease)
CNC(=O)C(=NOC)c1ccccc1COc1ncc(C(O)c2ccc(C)cc2)cc1Cl (stereo not shown) [Example 70] | ++ (++ = 75-100% control of plant disease) | ++ (++ = 75-100% control of plant disease) | ++ (++ = 75-100% control of plant disease) | ++ (++ = 75-100% control of plant disease)
CNC(=O)C(=NOC)c1ccccc1COc1ncc(C(OC(C)=O)c2ccc(C)cc2)cc1Cl (stereo not shown) [Example 71] | ++ (++ = 75-100% control of plant disease) | ++ (++ = 75-100% control of plant disease) | ++ (++ = 75-100% control of plant disease) | ++ (++ = 75-100% control of plant disease)
CNC(=O)C(=NOC)c1ccccc1COc1ncc(C(O)c2ccccc2)cc1Cl (stereo not shown) [Example 72] | ++ (++ = 75-100% control of plant disease) | ++ (++ = 75-100% control of plant disease) | ++ (++ = 75-100% control of plant disease) | ++ (++ = 75-100% control of plant disease)
CNC(=O)C(=NOC)c1ccccc1COc1ncc(C(O)c2cccc(Cl)c2)cc1Cl (stereo not shown) [Example 73] | ++ (++ = 75-100% control of plant disease) | ++ (++ = 75-100% control of plant disease) | ++ (++ = 75-100% control of plant disease) | ++ (++ = 75-100% control of plant disease)
CNC(=O)C(=NOC)c1ccccc1COc1ncc(C(OC(C)=O)c2ccccc2Cl)cc1Cl (stereo not shown) [Example 74] | ++ (++ = 75-100% control of plant disease) | ++ (++ = 75-100% control of plant disease) | ++ (++ = 75-100% control of plant disease) | ++ (++ = 75-100% control of plant disease)
CNC(=O)C(=NOC)c1ccccc1COc1ncc(C(OC(C)=O)c2cccc(Cl)c2)cc1Cl (stereo not shown) [Example 75] | ++ (++ = 75-100% control of plant disease) | ++ (++ = 75-100% control of plant disease) | ++ (++ = 75-100% control of plant disease) | ++ (++ = 75-100% control of plant disease)
CNC(=O)C(=NOC)c1ccccc1COc1ncc(C(OC(C)=O)c2ccccc2)cc1Cl (stereo not shown) [Example 76] | ++ (++ = 75-100% control of plant disease) | ++ (++ = 75-100% control of plant disease) | ++ (++ = 75-100% control of plant disease) | ++ (++ = 75-100% control of plant disease)
CNC(=O)C(=NOC)c1ccccc1COc1ncc(C(OC(C)=O)c2cccs2)cc1Cl (stereo not shown) [Example 77] | ++ (++ = 75-100% control of plant disease) | ++ (++ = 75-100% control of plant disease) | ++ (++ = 75-100% control of plant disease) | ++ (++ = 75-100% control of plant disease)
CNC(=O)C(=NOC)c1ccccc1COc1ncc(C(OC(C)=O)c2ccc(OC(F)(F)F)cc2)cc1Cl (stereo not shown) [Example 78] | ++ (++ = 75-100% control of plant disease) | ++ (++ = 75-100% control of plant disease) | ++ (++ = 75-100% control of plant disease) | ++ (++ = 75-100% control of plant disease)
CNC(=O)C(=NOC)c1ccccc1COc1ncc(C(OC)c2ccc(OC(F)(F)F)cc2)cc1Cl (stereo not shown) [Example 79] | ++ (++ = 75-100% control of plant disease) | ++ (++ = 75-100% control of plant disease) | ++ (++ = 75-100% control of plant disease) | − (− = 0-24% control of plant disease)
CCCCOC(C)c1cnc(OCc2ccccc2C(=NOC)C(=O)NC)c(Cl)c1 (stereo not shown) [Example 80] | ++ (++ = 75-100% control of plant disease) | ++ (++ = 75-100% control of plant disease) | ++ (++ = 75-100% control of plant disease) | − (− = 0-24% control of plant disease)
CNC(=O)C(=NOC)c1ccccc1COc1ncc(C(O)c2ccccc2C(F)(F)F)cc1Cl (stereo not shown) [Example 81] | ++ (++ = 75-100% control of plant disease) | ++ (++ = 75-100% control of plant disease) | + (+ = 25-74% control of plant disease) | ++ (++ = 75-100% control of plant disease)
